Test results from patent publication US8648066B2 (Exelixis, Inc., priority 2009, dated 2014).

Molecular target: mTOR/GbL/Raptor (mTORC1) (Homo sapiens, UniProt P42345)
Test: mTOR/GbL/Raptor (mTORC1) ELISA assay
Assay type: biochemical
Conditions: phosphorylation of 4E-BP1; 0.2 nM mTORC1, 10 μM ATP; read-out: IC50 in this assay (mTORC1 ELISA)
How it was run: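 ELISA read-out: phospho-4E-BP1 captured on Ni-chelate plates and detected with anti-phospho antibody plus HRP-anti-IgG luminescence. The kinase step ran 120 min at ambient temperature with 0.2 nM human mTORC1, 10 µM ATP, 50 nM His-4E-BP1, 10 mM MnCl2, pH 7.2 HEPES.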

| Compound | IC50 |
| --- | --- |
| CC(C)NS(=O)(=O)c1cc(-c2ccc3c(c2)CN(c2ncnc4c2CC(C)(C)CC4)CCO3)cnc1N [Example 364, 2-amino-5-[4-(6,6-dimethyl-5,6,7,8-tetrahydroquinazolin-4-yl)-2,3,4,5-tetrahydro-1,4-benzoxazepin-7-yl]-N-(1-methylethyl)pyridin-3-sulfonamide] | 0.01 to 0.05 µM |
| COCCOc1ccc(-c2ccc3c(c2)CN(c2nc(CN(C)C)nc4c2CC(C)(C)CC4)CCO3)cc1OC [Example 327, 1-(6,6-dimethyl-4-{7-[3-(methyloxy)-4-{[2-(methyloxy)ethyl]oxy}phenyl]-2,3-dihydro-1,4-benzoxazepin-4(5H)-yl}-5,6,7,8-tetrahydroquinazolin-2-yl)-N,N-dimethylmethanamine] | 0.25 to 1 µM |
| CCNc1nc2ccc(-c3ccc4c(c3)CN(c3ncnc(Nc5ccccc5)c3C)CCO4)cc2[nH]1 [Example 287, N-ethyl-6-{4-[5-methyl-6-(phenylamino)pyrimidin-4-yl]-2,3,4,5-tetrahydro-1,4-benzoxazepin-7-yl}-1H-benzimidazol-2-amine] | 0.05 to 0.25 µM |
| COc1cc2c(N3CCOc4ccc(-c5ccc6nc(C)[nH]c6c5)cc4C3)ncnc2c(OC)c1OC [Example 57, 7-(2-methyl-1H-benzimidazol-6-yl)-4-[6,7,8-tris(methyloxy)quinazolin-4-tris(methyloxy)quinazolin-4-yl]-2,3,4,5-tetrahydro-1,4-benzoxazepine] | ≥ 2 µM |
| CCC1CCc2nc(C)nc(N3CCOc4ccc(-c5cnc6nc(C)[nH]c6c5)cc4C3)c2C1 (centres unmarked) [Example 482, 4-(6-ethyl-2-methyl-5,6,7,8-tetrahydroquinazolin-4-yl)-7-(2-methyl-1H-imidazo[4,5-b]pyridin-6-yl)-2,3,4,5-tetrahydro-1,4-benzoxazepine] | 0.01 to 0.05 µM |
| CN(C)Cc1nc2c(c(N3CCOc4ccc(-c5cnc6nc(C7CC7)[nH]c6c5)cc4C3)n1)CC(C)(C)CC2 [Example 339, 1-{4-[7-(2-cyclopropyl-1H-imidazo[4,5-b]pyridin-6-yl)-2,3-dihydro-1,4-benzoxazepin-4(5H)-yl]-6,6-dimethyl-5,6,7,8-tetrahydroquinazolin-2-yl}-N,N-dimethylmethanamine] | ≤ 0.01 µM |
| CNC(=O)c1ccc(-c2ccc3c(c2)CN(c2ncnc(C)c2Cc2ccc(F)cc2)CCO3)cc1 [Example 171, 4-(4-{5-[(4-fluorophenyl)methyl]-6-methylpyrimidin-4-yl}-2,3,4,5-tetrahydro-1,4-benzoxazepin-7-yl)-N-methylbenzamide] | ≤ 0.01 µM |
| CN(C)Cc1nc2ncc(-c3ccc4c(c3)CN(c3ncnc5c3CC(C)(C)CC5)CCO4)cc2[nH]1 [Example 357, 1-{6-[4-(6,6-dimethyl-5,6,7,8-tetrahydroquinazolin-4-yl)-2,3,4,5-tetrahydro-1,4-benzoxazepin-7-yl]-1H-imidazo[4,5-b]pyridin-2-yl}-N,N-dimethylmethanamine] | 0.25 to 1 µM |
| CCNc1nc2ccc(-c3ccc4c(c3)CN(c3ccnc5c(F)cccc35)CCO4)cc2[nH]1 [Example 282, N-ethyl-6-[4-(8-fluoroquinolin-4-yl)-2,3,4,5-tetrahydro-1,4-benzoxazepin-7-yl]-1H-benzimidazol-2-amine] | 0.05 to 0.25 µM |
| CNc1ncc(-c2ccc3c(c2)CN(c2ncnc4c2CC(C)(C)CC4)CCO3)cc1S(=O)(=O)NCCO [Example 520, 5-[4-(6,6-dimethyl-5,6,7,8-tetrahydroquinazolin-4-yl)-2,3,4,5-tetrahydro-1,4-benzoxazepin-7-yl]-N-(2-hydroxyethyl)-2-(methylamino)pyridine-3-sulfonamide] | ≤ 0.01 µM |
| Cc1ncnc(N2CCOc3ccc(-c4ccc(C(=O)NCC(F)F)cc4)cc3C2)c1Cc1ccc(F)cc1 [Example 174, N-(2,2-difluoroethyl)-4-(4-{5-[(4-fluorophenyl)methyl]-6-methylpyrimidin-4-yl}-2,3,4,5-tetrahydro-1,4-benzoxazepin-7-yl)benzamide] | ≤ 0.01 µM |
